The record followed here is US9289503B2, “Fatty acid fumarate derivatives and their uses” (Catabasis Pharmaceuticals, Inc., priority 2010, dated 2016).

What all share (assay type): cell-based
The test system of one assay is IL-1β. The assay can be described thus: IL-1β gene expression in LPS-stimulated RAW264.7 macrophages. The note with it: 10 μM; 2 hours pre-incubation, 100 ng/ml LPS 3 hours; compared with 10 μM each DHA and MMF; FIG. 1. The method, then:
RAW264.7 macrophages were seeded at a density of 100,000 cells/well in a 96-well plate in DMEM supplemented with 10% FBS and Penn/strep. 16 hours later, medium was aspirated and replaced with 90 μl/well of serum-free DMEM. A fatty acid fumarate conjugate, DHA and monomethyl-fumarate (MMF) were brought up in 100% EtOH to a concentration of 100 mM and then diluted 1:100 in 100% FBS for a stock solution consisting of 1 mM compound and 1% EtOH. these stock solutions were then diluted 1:10 in FBS supplemented with 1% EtOH to generate a 100 μM of a fatty acid fumarate conjugate and 100 μM each of DHA and MMF. 10 μl was then added to the RAW246.7 cells to generate final concentrations 10 μM of the fatty acid fumarate conjugate or 10 μM each DHA and MMF, along with vehicle only control. […] IL-1β and TNF-α transcript levels were then measured using Taqman primer/probe assay sets (Applied Biosystems), normalized to GAPDH using the deltaCt method, and the data expressed relative to vehicle only control. […]
RAW264.7 macrophages are seeded at a density of 100,000 cells/well in a 96-well plate in DMEM supplemented with 10% FBS and Penn/strep. […] Transcript levels are then measured using ABI Taqman primer/probe assay kits, normalized to GAPDH using the deltaCt method, and the data expressed relative to vehicle only control.

A further assay deals with Hmox1. Kind of assay: Hmox1 target gene expression in RAW264.7 macrophages. The note with it: RAW264.7, 2 hours pre-incubation, 100 ng/ml LPS 3 hours; FIG. 3. The method, then: RAW264.7 macrophages are seeded at a density of 100,000 cells/well in a 96-well plate in DMEM supplemented with 10% FBS and Penn/strep. 16 hours later, medium is aspirated and replaced with 90 μl/well of serum-free DMEM. A fatty acid fumarate conjugate, DHA and EPA are brought up in 100% EtOH to a concentration of 100 mM and then diluted 1:100 In 100% FBS for a 20× stock solution consisting of 1 mM compound and 1% EtOH. The fatty acid fumarate conjugate 20× stock solutions are diluted 1:2 in FBS supplemented with 1% EtOH for a 500 uM 10× stock solution, whereas equal volumes of the DHA and EPA 20× stock solutions are mixed to create a 10× stock solution containing 500 μm each of DHA and EPA. […] The compounds are allowed to pre-incubate for 2 hours before stimulation of 100 ng/ml LPS (10 μl of 1 μg/ml LPS is added to each well). Following 3 hours of LPS stimulation, cells are washed once in 1× PBS, aspirated dry, and flash frozen in liquid nitrogen. RNA is then isolated and converted to cDNA using the Cells to cDNA kit (Ambion) according to the manufacturer's protocol. Transcript levels are then measured using ABI Taqman primer/probe assay kits, normalized to GAPDH using the deltaCt method, and the data expressed relative to vehicle only control.

The test system of the next assay is TNF-α. Kind of assay: TNF-α gene expression in LPS-stimulated RAW264.7 macrophages. The note with it: 10 μM; 2 hours pre-incubation, 100 ng/ml LPS 3 hours; compared with 10 μM each DHA and MMF; FIG. 1. The method, then:
RAW264.7 macrophages were seeded at a density of 100,000 cells/well in a 96-well plate in DMEM supplemented with 10% FBS and Penn/strep. 16 hours later, medium was aspirated and replaced with 90 μl/well of serum-free DMEM. A fatty acid fumarate conjugate, DHA and monomethyl-fumarate (MMF) were brought up in 100% EtOH to a concentration of 100 mM and then diluted 1:100 in 100% FBS for a stock solution consisting of 1 mM compound and 1% EtOH. these stock solutions were then diluted 1:10 in FBS supplemented with 1% EtOH to generate a 100 μM of a fatty acid fumarate conjugate and 100 μM each of DHA and MMF. 10 μl was then added to the RAW246.7 cells to generate final concentrations 10 μM of the fatty acid fumarate conjugate or 10 μM each DHA and MMF, along with vehicle only control. The compounds were allowed to pre-incubate for 2 hours before stimulation of 100 ng/ml LPS (10 μl of 1 μg/ml LPS was added to each well). Following 3 hours of LPS stimulation, cells were washed once in 1× PBS, aspirated dry, and flash frozen in liquid nitrogen. RNA was then isolated and converted to cDNA using the Cells to cDNA kit (Ambion) according to the manufacturer's protocol. IL-1β and TNF-α transcript levels were then measured using Taqman primer/probe assay sets (Applied Biosystems), normalized to GAPDH using the deltaCt method, and the data expressed relative to vehicle only control. […]

Consider `CC/C=C\C/C=C\C/C=C\C/C=C\C/C=C\C/C=C\CCC(=O)NCCNC(=O)/C=C/C(=O)OC` [Compound I-1, (E)-methyl 4-(2-(4Z,7Z,10Z,13Z,16Z,19Z)-docosa-4,7,10,13,16,19-hexaenamidoethylamino)-4-oxobut-2-enoate], for which the IL-1β gene expression entry in the assay with IL-1β was “greater reduction”. Also, the “effect on the target gene Hmox1” value with Hmox1 is given as “positive effect”. Besides, the TNF-α gene expression result in the assay on TNF-α was “greater reduction”.
